Experimental data reported in US20260355199A1, “COMPOSITIONS AND METHODS FOR TREATING OR PREVENTING NONALCOHOLIC STEATOHEPATITIS (NASH), ANOREXIA, DEPRESSION, ENDOMETRIOSIS, AND OTHER DISEASES OR DISORDERS” (priority 2022, published 2026).
Entries after “also recorded” stand apart in the source; their conditions may differ.

Assays:
[1] = system: TET3; assay: TET3 protein in SH-SY5Y human neuronal cells; format: cell-based
Text: Mouse GT1-7 hypothalamic neuronal cell line (Sigma-Aldrich, SCC116) and human SH-SY5Y neuroblastoma cell line (Sigma Aldrich, 94030304) were purchased and cultured according to the manufacturers' instructions. Purified Ad-TET3 adenovirus (Ad-FLAG.h-TET3, ADV-225322, Vector Biolabs) expressing human TET3 from a CMV promoter and Ad-GFP control adenovirus (1060, Vector Biolabs) were purchased.
For Bobcat339 treatment (FIG. 15A and FIG. 15B), GT1-7 cells grown in 24-well plates at 2×10^5 cells/well were incubated with vehicle or Bobcat339 at a final concentration of 10 μM for 6 h, followed by RNA and protein extractions. For TET3 protein stability assay (FIG. 15B), GT1-7 cells in 24-well plates at 2×10^5 cells/well were incubated with vehicle or Bobcat339 at a final concentration of 10 μM for 3 hours, followed by addition of cycloheximide (CHX, Cell Signaling, 2112) at a final concentration of […] in the presence of 10 μM of Bobcat339. Proteins were harvested at 0, 1, 2, and 3 hours after addition of CHX. For TET3 expression restoration experiments (FIG. 15C and FIG. 15D), GT1-7 or SH-SY5Y cells seeded in 24-well plates at 2×10^5 cells/well were infected with Ad-GFP or Ad-TET3 at 4000 gc/cell. Following 16 h of infection, vehicle or Bobcat339 were added at a final concentration of 10 μM. Protein and RNA were isolated 48 h later and analyzed. […]

[2] = system: TET3; assay: TET3 protein in RAW 264.7 cells; format: cell-based, mouse; settings: RAW 264.7, 10 μM, 24 h
Description: For siRNA transfection in a 24-well plate scale of Raw 264.7 cells, 10 pmol of NT siRNA (AM4636, Ambion) or Tet3 siRNA (4390815/s101483, Ambion) was mixed with 100 μL of OPTI-MEM (Gibco, 31985-070) by gentle pipetting. In parallel, 3 μL of Lipofectamine RNAiMAX (Invitrogen, 13778-150) was mixed with 100 μL of OPTI-MEM by gentle pipetting. Following 5 min of incubation at RT, the two were combined and the resulting 200 μL of transfection solution was added to each well of cells. After 24 h of incubation at […] in a 5% humidified CO2 tissue culture incubator, 300 μL of growth media was added and incubation was continued until cell harvesting.
(§1) Bobcat339 Treatment of Cultured Cells Bobcat339 powder (Sigma-Aldrich, SML2611) was freshly dissolved in DMSO at a concentration of 5 mM and filtered through a 0.22 micron. Cells grown at a density of 80-90% were incubated in growth media with vehicle (DMSO) or Bobcat339 at a final concentration of 10 μM for 24 h, followed by RNA and protein extraction.
For TET3 expression restoration experiments, cells seeded in 24-well plates were infected with Ad-GFP or Ad-TET3 at 4000 gc/cell. Following 16 h of infection, vehicle or Bobcat339 were added at a final concentration of 10 μM. Protein and RNA were isolated 48 hours later and analyzed. […]

[3] = system: TET3; assay: TET3 protein in THP-1 cells; format: cell-based, human; settings: THP-1, 10 μM, 24 h
Description: as §1
Cells were homogenized in situ using a pipette tip in 2×SDS-sample buffer with 10% β-mercaptoethanol at RT followed by heating at 100 °C for 5 min with occasional vortexing. The samples were loaded onto a 4-15% gradient SDS gel (Bio-rad, 456-8086) (10 μL/well) and transferred to nitrocellulose membranes, followed by Western blot analysis. The antibodies used were anti-TET3 (diluted at 1:1000, GeneTex, GTX121453 for human; diluted at 1:1000, Active Motif, 61395 for mouse), anti-TET2 (diluted at 1:1000, Proteintech, 21207-1-AP for human/mouse), anti-TGF-β1 (diluted at 1:1000, Abcam, ab215715 for human), anti-Lin28A (diluted at 1:1000, Cell Signaling, 3978S), and HRP-conjugated anti-GAPDH (dilution 1:5000; Proteintech, HRP-60004). The secondary antibody was HRP-linked Anti-rabbit IgG (dilution 1:10,000; Rockland, 611-1322).

[4] = system: TET3 mRNA; assay: TET3 mRNA in THP-1 cells; format: cell-based, human; settings: THP-1, 10 μM, 24 h
Description: as §1
Total RNAs were extracted from cells using PureLink RNA Mini Kit. 0.5-1 μg total RNA was reverse transcribed to cDNA in a reaction volume of 20 μL using PrimeScript RT Reagent Kit. Real-time quantitative PCR was performed in a 15 μL reaction volume containing 0.5-1 μL of cDNA using SsoAdvanced Universal SYBR Green Supermix in a Bio-Rad iCycler. Gene expression levels were normalized against RPLP0.

[5] = system: TET3; assay: TET3 protein stability (cycloheximide) in MDMs; format: cell-based, human; settings: 10 μM, with cycloheximide
Description: For TET protein stability assay of MDMs, cells in 24-well plates were incubated with vehicle or Bobcat339 at a final concentration of 10 μM for 3 h, followed by addition of cycloheximide (CHX, Cell Signaling, 2112) at a final concentration of 50 μg/mL. Proteins were harvested at 0, 2, 4, and 6 hours after addition of CHX.

[6] = Energy expenditure and feeding of mice given Bobcat339; format: in vivo, mouse
[7] = system: activity-based anorexia (ABA) mice; settings: temporal (3 days); cited from earlier work

Nc1nc(=O)n(-c2cccc(-c3ccccc3)c2)cc1Cl [Bobcat339, 4-Amino-1-[1,1′-biphenyl]-3-yl-5-chloro-2(1H)-pyrimidinone]
TET3 protein level / degradation [1]: induced protein degradation of TET3 | TET3 protein level [2]: decreased the levels of TET3 protein; also recorded: decreased the level of TET3; also recorded: a decrease in TET3 at the protein level | TET3 protein level [3]: a decrease in TET3 at the protein level | TET3 mRNA [4]: no significant difference in expression between the groups | TET3 protein stability [5]: reduced the steady-state level of TET3 much more dramatically than that of TET2 | feeding ([6]; drinking water or i.p.): induced hyperphagia | liver toxicity ([6]; drinking water or i.p.): without showing evidence of liver toxicity | resting energy expenditure ([6]; drinking water or i.p.): decreases resting energy expenditure | appetite stimulation by route ([6]; oral and intraperitoneal): able to stimulate appetite via multiple routes of administration | food intake [7]: increase food intake
